# Measurements from the supplement of paper PMC10307832.
# Tests used:
# Assay in all cases: relative viability (nuclei count vs DMSO), 5 days (fraction); higher = more cells survive
# Everolimus + Vorinostat = compound: CO[C@H]1C[C@@H]2CC[C@@H](C)[C@@](O)(O2)C(=O)C(=O)N2CCCC[C@H]2C(=O)O[C@H]([C@H](C)C[C@@H]2CC[C@@H](OCCO)[C@H](OC)C2)CC(=O)[C@H](C)/C=C(\C)[C@@H](O)[C@@H](OC)C(=O)[C@H](C)C[C@H](C)/C=C/C=C/C=C/1C [Everolimus] + O=C(CCCCCCC(=O)Nc1ccccc1)NO [Vorinostat] (partner 1 µM)
# How it was run: (§1)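 Lung cancer cell lines, seeded in 1536-well plates, were treated the following day by pin tool with a single drug or with five library-drug doses (not always all listed) in √10 steps on top of a fixed anchor-drug dose. Cells were fixed and nuclei stained in one step after 5 days, and nuclei were counted. Relative viability is the nuclei count for treated wells divided by that for vehicle wells, reported as medians of duplicate plates.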
# Everolimus + Tozasertib = compound: CO[C@H]1C[C@@H]2CC[C@@H](C)[C@@](O)(O2)C(=O)C(=O)N2CCCC[C@H]2C(=O)O[C@H]([C@H](C)C[C@@H]2CC[C@@H](OCCO)[C@H](OC)C2)CC(=O)[C@H](C)/C=C(\C)[C@@H](O)[C@@H](OC)C(=O)[C@H](C)C[C@H](C)/C=C/C=C/C=C/1C [Everolimus] + Cc1cc(Nc2cc(N3CCN(C)CC3)nc(Sc3ccc(NC(=O)C4CC4)cc3)n2)n[nH]1 [Tozasertib] (partner 0.1 µM)
# How it was run: as §1
# Everolimus + Navitoclax = compound: CO[C@H]1C[C@@H]2CC[C@@H](C)[C@@](O)(O2)C(=O)C(=O)N2CCCC[C@H]2C(=O)O[C@H]([C@H](C)C[C@@H]2CC[C@@H](OCCO)[C@H](OC)C2)CC(=O)[C@H](C)/C=C(\C)[C@@H](O)[C@@H](OC)C(=O)[C@H](C)C[C@H](C)/C=C/C=C/C=C/1C [Everolimus] + CC1(C)CCC(c2ccc(Cl)cc2)=C(CN2CCN(c3ccc(C(=O)NS(=O)(=O)c4ccc(N[C@H](CCN5CCOCC5)CSc5ccccc5)c(S(=O)(=O)C(F)(F)F)c4)cc3)CC2)C1 [Navitoclax] (partner 0.5 µM)
# How it was run: as §1
# Everolimus + Crizotinib = compound: CO[C@H]1C[C@@H]2CC[C@@H](C)[C@@](O)(O2)C(=O)C(=O)N2CCCC[C@H]2C(=O)O[C@H]([C@H](C)C[C@@H]2CC[C@@H](OCCO)[C@H](OC)C2)CC(=O)[C@H](C)/C=C(\C)[C@@H](O)[C@@H](OC)C(=O)[C@H](C)C[C@H](C)/C=C/C=C/C=C/1C [Everolimus] + C[C@@H](Oc1cc(-c2cnn(C3CCNCC3)c2)cnc1N)c1c(Cl)ccc(F)c1Cl [Crizotinib] (partner 1 µM)
# How it was run: as §1
Cell Line,relative viability (Everolimus + Vorinostat; first compound 0.01 µM),relative viability (Everolimus + Vorinostat; first compound 0.03162 µM),relative viability (Everolimus + Vorinostat; first compound 0.1 µM),relative viability (Everolimus + Vorinostat; first compound 0.3162 µM),relative viability (Everolimus + Vorinostat; first compound 1 µM),relative viability (Everolimus + Tozasertib; first compound 0.01 µM),relative viability (Everolimus + Tozasertib; first compound 0.03162 µM),relative viability (Everolimus + Tozasertib; first compound 0.1 µM),relative viability (Everolimus + Tozasertib; first compound 0.3162 µM),relative viability (Everolimus + Tozasertib; first compound 1 µM),relative viability (Everolimus + Navitoclax; first compound 0.01 µM),relative viability (Everolimus + Navitoclax; first compound 0.03162 µM),relative viability (Everolimus + Navitoclax; first compound 0.1 µM),relative viability (Everolimus + Navitoclax; first compound 0.3162 µM),relative viability (Everolimus + Navitoclax; first compound 1 µM),relative viability (Everolimus + Crizotinib; first compound 0.01 µM),relative viability (Everolimus + Crizotinib; first compound 0.03162 µM),relative viability (Everolimus + Crizotinib; first compound 0.1 µM),relative viability (Everolimus + Crizotinib; first compound 0.3162 µM),relative viability (Everolimus + Crizotinib; first compound 1 µM)
HCC-78,0.401,0.372,0.416,0.367,0.307,0.361,0.428,0.406,0.426,0.454,0.853,0.421,0.424,0.589,0.455,0.315,0.261,0.265,0.259,0.298
NCI-H2085,0.636,0.582,0.497,0.576,0.541,0.81,0.723,0.602,0.656,0.557,0.73,0.811,0.66,0.83,0.705,0.775,0.719,0.64,0.655,0.496
PC-14,0.379,0.576,0.486,0.528,0.421,0.592,0.673,0.499,0.417,0.424,1.06,1.05,0.88,0.911,0.864,0.983,0.936,0.942,0.908,0.741
A-427,0.781,0.817,0.751,0.829,0.843,0.17,0.164,0.203,0.184,0.19,0.622,0.404,0.409,0.388,0.461,0.776,0.768,0.745,0.704,0.675
H3255,0.474,0.82,0.47,0.446,0.549,0.597,0.55,0.412,0.462,0.402,0.252,0.23,0.188,0.167,0.148,0.575,0.505,0.498,0.555,0.527
HCC-44,1.17,1.23,1.03,1.14,1.05,1.07,1.07,0.94,0.97,1.19,0.941,0.88,0.819,0.904,0.903,0.912,0.935,0.774,0.86,0.677
NCI-H1734,0.613,0.606,0.505,0.422,0.563,0.263,0.234,0.223,0.235,0.248,0.455,0.519,0.447,0.441,0.608,0.501,0.48,0.401,0.378,0.449
NCI-H2228,0.536,0.342,0.458,0.436,0.336,0.23,0.244,0.271,0.211,0.137,0.685,0.527,0.508,0.421,0.539,0.331,0.254,0.281,0.303,0.328
COR-L23,0.322,0.336,0.308,0.381,0.367,0.334,0.324,0.288,0.255,0.233,0.706,0.597,0.662,0.636,0.765,0.515,0.597,0.623,0.666,0.635
NCI-H1993,0.429,0.488,0.438,0.377,0.508,0.482,0.508,0.573,0.521,0.485,0.687,0.676,0.631,0.585,0.717,0.688,0.659,0.702,0.642,0.705
NCI-H1437,0.747,0.632,0.656,0.586,0.432,0.421,0.51,0.411,0.403,0.361,0.913,0.89,0.836,0.804,0.661,0.969,0.903,0.782,0.873,0.648
UMC-11,0.213,0.196,0.19,0.187,0.213,0.212,0.195,0.208,0.215,0.198,0.171,0.164,0.166,0.207,0.179,0.271,0.244,0.239,0.249,0.286
201T,0.844,0.908,0.81,0.806,0.809,0.898,0.913,0.801,0.843,0.906,1,1.09,1.05,1.07,1.03,0.945,0.984,0.926,0.962,0.977
ChaGo-K-1,0.678,0.688,0.62,0.662,0.726,0.226,0.208,0.215,0.215,0.238,1.01,0.558,0.951,0.837,1.01,1.04,1.2,1.07,1.02,1.14
NCI-H1650,0.396,0.388,0.29,0.365,0.383,0.46,0.424,0.416,0.445,0.482,1.2,0.824,1.06,1.2,0.876,0.922,1.06,0.918,1,0.719
LOU-NH91,0.809,0.653,0.744,0.727,0.764,0.637,0.608,0.63,0.609,0.656,0.53,0.59,0.473,0.524,0.496,0.664,0.695,0.627,0.573,0.58
HOP-62,0.475,0.345,0.388,0.389,0.361,0.441,0.362,0.363,0.41,0.264,0.997,0.875,0.862,0.786,0.948,0.934,0.58,0.556,0.583,0.637
NCI-H1915,0.389,0.387,0.431,0.37,0.364,0.514,0.46,0.42,0.432,0.418,0.782,0.774,0.737,0.72,0.749,0.849,0.784,0.798,0.711,0.753
NCI-H3122,0.678,0.598,0.607,0.369,0.669,0.417,0.517,0.421,0.439,0.363,1.05,0.916,0.82,0.89,0.617,0.219,0.246,0.238,0.194,0.192
NCI-H1651,0.424,0.418,0.36,0.449,0.405,0.616,0.542,0.383,0.485,0.366,0.555,0.581,0.576,0.557,0.399,0.846,0.786,0.735,0.708,0.566
NCI-H838,0.541,0.539,0.554,0.573,0.471,0.266,0.258,0.27,0.237,0.245,0.57,0.54,0.499,0.588,0.495,0.581,0.548,0.416,0.525,0.357
NCI-H596,0.505,0.741,0.414,0.421,0.419,0.528,0.548,0.485,0.455,0.478,0.427,0.361,0.394,0.374,0.369,0.677,0.65,0.631,0.619,0.683
SK-LU-1,0.52,0.52,0.587,0.538,0.527,0.285,0.262,0.24,0.241,0.289,0.529,0.48,0.494,0.568,0.475,0.478,0.511,0.572,0.544,0.626
NCI-H441,0.701,0.789,0.55,0.669,0.589,0.521,0.643,0.636,0.555,0.54,0.658,0.577,0.79,0.73,0.482,0.881,0.65,0.606,0.766,0.723
SK-MES-1,0.897,1,1,0.887,0.743,0.791,0.807,0.794,0.779,0.662,0.948,0.688,,0.715,0.579,0.871,0.689,0.689,0.644,0.608
NCI-H1355,0.385,0.331,0.341,0.365,0.295,0.497,0.398,0.355,0.413,0.32,0.541,0.415,0.349,0.394,0.377,0.524,0.462,0.46,0.426,0.438
SW 1573,0.373,0.452,0.465,0.458,0.478,0.16,0.172,0.13,0.157,0.132,0.577,0.466,0.464,0.533,0.395,0.593,0.521,0.53,0.383,0.427
